In patent US11466028B2, “Fused 1,4-oxazepines as BET protein degraders” (THE REGENTS OF THE UNIVERSITY OF MICHIGAN, priority 2016, dated 2022):
Where two headings read alike, the source gives them in different places.

Key:
[1] = tested on: MOLM-13; experiment: CellTiter-Glo cell growth inhibition, MOLM-13; assay type: cell-based; settings: Homo sapiens
Procedure, shortened: (§1)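 Leukemia cells seeded at 2,000 cells/well with serially diluted compounds, 4 days at 37 °C, 5% CO2. Viability by CellTiter-Glo luminescence after 10-20 min at RT. IC50 calculated from the curves.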

[2] = tested on: MDA-MB-468; experiment: WST-8 cell growth inhibition assay, MDA-MB-468; assay type: cell-based; settings: Homo sapiens, WST-8, Table 6
Experimental: (§2) Cpd. Nos. 7 and 18 were tested in various triple-negative breast cancer cell lines using the WST-8 cell growth assay.

[3] = tested on: MDA-MB-474; experiment: WST-8 cell growth inhibition assay, MDA-MB-474; assay type: cell-based; settings: WST-8, Table 6
Experimental: as §2

[4] = tested on: MDA-MB-157; experiment: WST-8 cell growth inhibition assay, MDA-MB-157; assay type: cell-based; settings: Homo sapiens, WST-8, Table 6
Experimental: as §2

[5] = tested on: HBL100; experiment: WST-8 cell growth inhibition assay, HBL100; assay type: cell-based; settings: Homo sapiens, HBL-100; WST-8, Table 6
Experimental: as §2

[6] = molecular target: T1, BRD2 (Homo sapiens, UniProt P25440); experiment: Western blot, degradation of BRD2 in RS4;11 cells; assay type: cell-based; settings: 2.5 h, as compared to Compound A, FIG. 1
T1 construct: endogenous in cells; host or cells: RS4;11 and MOLM-13 leukemia cells
T1 sequence (P25440 whole entry): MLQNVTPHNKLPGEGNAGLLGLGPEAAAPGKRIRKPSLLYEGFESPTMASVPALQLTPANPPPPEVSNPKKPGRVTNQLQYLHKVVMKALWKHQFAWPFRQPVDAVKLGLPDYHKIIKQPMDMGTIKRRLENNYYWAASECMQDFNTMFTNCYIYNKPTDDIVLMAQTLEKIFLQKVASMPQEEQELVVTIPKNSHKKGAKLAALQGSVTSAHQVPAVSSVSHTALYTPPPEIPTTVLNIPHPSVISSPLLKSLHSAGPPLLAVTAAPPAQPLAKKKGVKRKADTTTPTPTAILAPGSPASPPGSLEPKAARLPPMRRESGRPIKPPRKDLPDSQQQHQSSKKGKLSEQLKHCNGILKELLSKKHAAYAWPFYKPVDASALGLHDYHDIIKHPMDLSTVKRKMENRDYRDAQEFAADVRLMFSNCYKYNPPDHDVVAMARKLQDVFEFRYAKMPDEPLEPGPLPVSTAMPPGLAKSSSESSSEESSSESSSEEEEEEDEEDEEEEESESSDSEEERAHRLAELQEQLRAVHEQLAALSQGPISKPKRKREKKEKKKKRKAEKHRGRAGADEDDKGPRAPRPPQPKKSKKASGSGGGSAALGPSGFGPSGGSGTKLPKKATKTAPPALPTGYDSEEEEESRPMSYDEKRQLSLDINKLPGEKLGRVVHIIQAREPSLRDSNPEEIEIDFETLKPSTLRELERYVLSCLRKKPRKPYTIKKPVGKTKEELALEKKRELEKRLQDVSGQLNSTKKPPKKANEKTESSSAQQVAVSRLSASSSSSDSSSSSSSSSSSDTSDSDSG
Experimental: Cells were treated with compounds at the indicated concentrations for 2.5 h and 3 h, respectively, for RS4;11 (see FIG. 1) and MOLM-13 (see FIG. 2) cells. Compound A is ((S)-3-benzyl-6,9-dimethyl-2-((1-methyl-1H-pyrazol-4-yl)ethynyl)-4H,6H-thieno[2,3-e][1,2,4]triazolo[3,4-c][1,4]oxazepine). See Cpd. No. 85 of U.S. Appl. No. 62/295,271.
Collected cells were lysed in lysis buffer [1% CHAPS, 150 mM NaCl, 20 mM Tris-HCl, 1 mM. EDTA, 1 mM EGTA, and COMPLETE proteinase inhibitor (Roche)] for 30 minutes on ice. Protein concentrations were determined using the Bio-Rad Protein Assay Dye reagent. Whole tumor lysates (20 μg) were separated on a 4-20% Novex gels (Invitrogen). The separated proteins were transferred to a PVDF membrane (BIO-RAD) and the PVDF membrane was then blotted with 5% Blotting-Grade Blocker (BIO-RAD) for 1 hour at room temperature. The primary antibodies used were BRD4 rabbit polyclonal antibody [Bethyl Laboratories, Inc, cat #A301] and BRD2 antibody.
The BIO-RAD Clarity Western ECL Substrates (BIO-RAD) and HyBlot CL film (Denville) were used for signal development and detection using a SRX-101A tabletop processor (Konica Minolta).

[7] = tested on: AML5; experiment: CellTiter-Glo cell viability, AML5 leukemia cell line; assay type: cell-based; settings: Table 5
Experimental: (§3) Cell growth inhibitory activity of representative Compounds of the Disclosure was determined using the CellTiter-Glo® Luminescent Cell Viability Assay. Cells were seeded in 384-well white opaque cell culture plates at a density of 2,000 cells/well with serially diluted compounds and incubated at 37° C. in an atmosphere of 95% air and 5% CO2 for 4 days. Cell viability was determined using the CellTiter-Glo® Luminescent Cell Viability Assay Kit (Promega, Madison, Wis.) according to the manufacture's instruction. Briefly, a volume of CellTiter-Glo® Reagent equal to the volume of cell culture medium was added to each well, and then the plates were incubated at room temperature for 10-20 minutes. The luminescent signal was measured using a Tecan Infinite M1000 multimode microplate reader (Tecan, Morrisville, N.C.). The half maximal inhibitory concentration (IC50) was calculated using the GraphPad Prism 5 software (GraphPad Software, La Jolla, Calif.).
(§4) Cpd. Nos. 18 and 19 were tested in various leukemia cell lines using the CellTiter-Glo® Luminescent Cell Viability Assay as described in Example 35.

[8] = tested on: MDA-MB-453; experiment: WST-8 cell growth inhibition assay, MDA-MB-453; assay type: cell-based; settings: Homo sapiens, WST-8, Table 6
Experimental: as §2

[9] = tested on: RS4;11; experiment: CellTiter-Glo cell growth inhibition, RS4;11; assay type: cell-based; settings: Homo sapiens
Procedure, shortened: as §1

[10] = tested on: RS4;11 xenograph tumors; experiment: RS4;11 xenograft model; assay type: in vivo, SCID mice; settings: SCID mice, i.v. 5 mg/kg at days 1, 3, 5 per week for two weeks, FIG. 4
Experimental: Cpd. Nos. 7 and 11 were dissolved in 10% PCP [10% PEG400 (Sigma), 3% Cremophor (Sigma), and 87% PBS (Gibco)]. The pH of the drug solutions were checked before use and adjusted with 0.5N NaOH to be between pH 6.5 and 8.0 for IV (intravenous) administration.
RS4;11 cells were maintained at 37° C., 95% air, 5% carbon dioxide in Improved MEM (Richter's Mod.) supplemented with 10% Fetal Bovine Serum, 100 units/ml of penicillin and 100 units/ml of streptomycin (GIBCO™, Invitrogen Corp.) and passaged twice weekly.
Tumor cells for xenografts were harvested with Trypsin (0.05%)-EDTA (0.53 mM) (GIBCO™, Invitrogen Corp.), growth medium added and cells placed on ice. Cells were washed once with 1×PBS (GIBCO™, Invitrogen Corp.) and re-suspended in PBS. After washing in PBS, cells were re-suspended in an ice cold mixture of 1:1 PBS and Matrigel (BD Biosciences, Invitrogen Corp.) for a final Matrigel protein concentration of 5 mg/ml. Cells at 5×10^6 cells in 0.1 ml were injected subcutaneously (s.c.) into the flank region of each mouse using a 25 gauge needle. All tumors were inoculated into SCID mice (strain:236) C.B-17 SCID, Charles River.
The size of tumors growing in the mice was measured in two dimensions using calipers. Tumor volume (mm^3)═(A×B^2)/2 where A and B are the tumor length and width (in mm), respectively. During treatment, tumor volume and body weight were measured three times a week. After the treatment was stopped, tumor volume and body weight was measured at least once a week.
Tumors were not allowed to exceed 10% of the animals total body weight. If an animal had two or more tumors the total weight of all tumors were not allowed to exceed 10% of the animal's total body weight. At the end of the experimental period or when tumor size approached 10% of the total body weight, the animal was euthanized.
Before treatment began, tumors were allowed to grow to 100-200 mm^3 in volume, at which point the blood vessel supplies to the tumor should have been well established. Mice with tumors within acceptable size range were randomized into treatment groups of seven mice. Cpd. Nos. 7 and 11 were given i.v. at 10 mg/kg at days 1,3, and 5 per week for two weeks. The Control group received vehicle alone. Cpd. Nos. 16, 18, 22 and 48 were given i.v. at 5 mg/kg at days 1, 3, and 5 per week for two weeks. The Control group received vehicle alone.
Representative Compounds of the Disclosure were tested in the RS4;11 and other xenograph models using similar techniques. […] No. 22 in the MDA-MB-231 TNBC model.

[11] = tested on: MDA-MB-231; experiment: CellTiter-Glo cell growth inhibition, MDA-MB-231; assay type: cell-based; settings: Homo sapiens, MDA-MB-231, 96 h, 4 days, Table 4
Procedure, shortened: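 Cells seeded at 2,000 cells/well with serially diluted compound and incubated 4 days at 37 °C, 5% CO2. Viability read by CellTiter-Glo luminescence after 10-20 min at room temperature; IC50 calculated from the dose-response.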

[12] = tested on: MV4; 11; experiment: CellTiter-Glo cell viability, MV4;11 leukemia cell line; assay type: cell-based; settings: Homo sapiens, Table 5
Experimental: as §3, §4

Cc1nnc2n1-c1sc(C#Cc3cnn(CCCC#Cc4cccc5c4CN(C4CCC(=O)NC4=O)C5=O)c3)c(Cc3ccccc3)c1CO[C@H]2C (stereo partly drawn) [Cpd. No. 18, 3-(4-(5-(4-(((S)-3-benzyl-6,9-dimethyl-4H,6H-thieno[2,3-e][1,2,4]triazolo[3,4-c][1,4]oxazepin-2-yl)ethynyl)-1H-pyrazol-1-yl)pent-1-yn-1-yl)-1-oxoisoindolin-2-yl) piperidine-2,6-dione]
IC50 ([1]; MOLM-13, 96 h, 4 days, Table 4, read-out: MOLM-13 IC50): 1 nM | IC50 ([1]; MOLM-13, Table 5, read-out: IC50 (nM) MOLM13): 0.5 nM | IC50 [2]: 0.78 ± 0.06 nM | IC50 [3]: 0.31 ± 0.01 nM | IC50 [4]: 0.06 ± 0.01 nM | IC50 [5]: 0.84 ± 0.14 nM | degradation of BRD2 protein (Western blot) [6]: induce degradation | IC50 [7]: < 0.01 nM | IC50 [8]: 0.25 ± 0.04 nM | IC50 ([9]; RS4-11, 96 h, 4 days, Table 4, read-out: RS-4, 11 IC50): 0.03 nM | IC50 ([9]; RS4-11, Table 5, read-out: IC50 (nM) RS4, 11): 0.004 ± 0.001 nM | tumor regression in RS4;11 xenograph tumors [10]: induce tumor regression | IC50 [11]: 1500 pM | IC50 [12]: 0.06 ± 0.006 nM
